Data set [1] deals with MSPa (Pseudomonas aeruginosa, UniProt Q9I636). Briefly: Isothermal titration calorimetry, MSPa.
Procedure: (§2) Protein samples were dialyzed (2 × 1 L) in a D-tube dialyzer (Merck, Watford, UK) for 3 h in 25 mM Tris-HCl, 100 mM NaCl, and 0.1 mM TCEP (pH 7.5). […] The syringe and the cell both contained a final concentration of 0.1% DMSO. The injection parameters for MSPa were: Reference power 15 µcal/sec, initial injection of 3 µL (3.6 sec per injection) with subsequent injections of 10 µL (12 sec per injection). Injections were spaced by 150 sec with a filter period of 2 sec. The injection parameters for ICLPa were: Reference power 15 µcal/sec, initial injection of 3 µL (3.6 sec per injection) with subsequent injections of 8 µL (10 sec per injection). Injections were spaced by 170 sec with a filter period of 2 sec. Data were analyzed in NITPIC (NITPIC, Bethesda, MD, USA) [31] for baseline calculations and then fit for thermodynamic parameters using the OneSite model in Origin 7.0 software (Origin Software Solutions, Bristol, UK). Each titration was carried out in duplicate.
For data set [2], the system named is P. aeruginosa. Further details: method as in Fahnoe et al. [13]. The settings on record: ref Fahnoe et al. [13], cited from earlier work.
Data set [3] relates to U937 cells. Put plainly: CytoTox 96 LDH release cytotoxicity assay, U937. The class given is cell-based, human. The settings on record: IC50 cytotoxicity/IC50 P. aeruginosa growth inhibition in M9 acetate. How it is done:
The CytoTox 96® nonradioactive cytotoxicity assay (Promega, Madison, WI, USA) was performed to determine the number of cells affected by necrosis measuring LDH release. A U937 cell suspension (5 × 10^5 cells/mL) was prepared, and 99.5 µL of this suspension were added to the wells of clear, sterile, 96-well, U-bottomed plates (Greiner, Dungannon, UK). The test compounds (0.5 µL of a 200 × concentrated stock) or 0.5% DMSO (control) were added to each well, and the plates were shaken for 1 min at 100 rpm, followed by 3.5 h at 37 °C with 5% CO2. At this point, CytoTox 96® 10× lysis solution was added to the wells reserved for total lysis. These samples represented the LDH released following complete cell lysis. After 30 min, 50 µL of supernatant from each test well and total lysis well was transferred to new 96-well plates (Thermo Fisher Scientific, Bishop’s Stortford, UK). Prethawed CytoTox 96® buffer was mixed with the CytoTox 96® substrate, and 50 µL were added into each well. The plates were incubated for 10 min in darkness at 25 °C. CytoTox 96® stop buffer (50 µL) was added, and the plates were incubated for a further 15 min. LDH release was quantified by measuring A492 nm in a CLARIOstar® multimode microplate reader (BMG Labtech, Aylesbury, UK).
On the technique in general: LDH in the medium is a marker of cell lysis.

In data set [4] the target is T1, ICLPa (Pseudomonas aeruginosa, UniProt Q9I0K4).
T1 sequence (Q9I0K4 1-531): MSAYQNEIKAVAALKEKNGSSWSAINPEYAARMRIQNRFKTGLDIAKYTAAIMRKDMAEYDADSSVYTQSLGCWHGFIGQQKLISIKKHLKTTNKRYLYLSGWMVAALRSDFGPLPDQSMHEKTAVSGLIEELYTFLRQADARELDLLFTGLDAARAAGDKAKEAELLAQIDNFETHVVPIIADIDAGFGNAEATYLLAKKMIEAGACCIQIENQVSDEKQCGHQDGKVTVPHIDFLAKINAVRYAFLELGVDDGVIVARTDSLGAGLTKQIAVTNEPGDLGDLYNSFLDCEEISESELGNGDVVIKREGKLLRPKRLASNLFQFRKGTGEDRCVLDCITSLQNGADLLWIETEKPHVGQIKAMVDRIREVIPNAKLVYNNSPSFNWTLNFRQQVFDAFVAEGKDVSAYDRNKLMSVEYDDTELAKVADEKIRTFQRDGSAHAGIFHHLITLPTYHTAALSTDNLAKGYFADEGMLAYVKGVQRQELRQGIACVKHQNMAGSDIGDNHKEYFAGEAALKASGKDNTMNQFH
Briefly: Isothermal titration calorimetry, ICLPa. Particulars: ITC.
Procedure: as §2

Data set [5] has as its target T1, ICLPa. Briefly: Kinetic mode of action on ICLPa. It counts as biochemical. Details: made in house. Particulars: isocitrate titrated; uncompetitive model, GraphPad Prism. How it is done: The enzymatic activity of purified ICLPa and MSPa was assayed essentially as previously described. Compounds were added to the reaction mixtures (minus substrates) and incubated for 5 min at 37 °C. The enzyme concentration in the reaction mixtures was 170 nM for ICL and 25 nM for MS (based on the concentration of the monomer in each case). […] The reactions were initiated by the addition of pH-adjusted substrates, and the initial rates were recorded as A324 nm (for ICLPa) and A412 nm (for MSPa) using a Biospectrometer (Eppendorf, Stevenage, UK). Substrate turnover was calculated from the molar extinction coefficient of the assay products: Glyoxylate-phenylhydrazone (16,800/M/cm) for ICLPa and 2-nitro-5-thiobenzoic acid (14,150/M/cm) for MSPa.
The mode of action of SB002 on MSPa and ICLPa was determined by titrating the respective substrates of each enzyme in the presence of three fixed concentrations of SB002 (selected to lie around the measured IC50 value) and measuring the reaction rates as outlined in Section 4.3. Double-reciprocal plots and best-fit inhibition models (GraphPad Prism v. 7.04) were used to assess the mode of inhibition. Inhibition constants were calculated using GraphPad Prism v. 7.04 (GraphPad Software, Inc., La Jolla, CA, USA). Each data point represents the mean ± SD for three independent replicates.

Data set [6] has as its system A-375 cells. Briefly: CellTiter-Glo luminescent cell viability assay (ATP), A-375. The class given is cell-based, human. The settings on record: IC50 cytotoxicity/IC50 P. aeruginosa growth inhibition in M9 acetate. Here is the method: (§1) The number of viable cells based on ATP quantification was determined using the CellTiter-Glo® luminescent cell viability assay (Promega, Madison, WI, USA, lot no. 0000200446). Briefly, cells were seeded into white, flat-bottomed, sterile 96-well plates (PerkinElmer, Beaconsfield, UK) and incubated for 24 h. For A-375 cells, we used 10,000 cells/well, and for H27 cells, we used 7500 cells/well. Test compounds were diluted in assay medium (Glutamax DMEM with 5% FBS (Gibco)) and added to the plates in two-fold dilutions starting at 100 µM. Negative controls (0.5% DMSO) and positive controls (camptothecin, 1.6 µM for the A-375 cells and 50 µM for the H27 cells) were also included, and the plates were incubated for an additional 48 h (95% humidity, 5% CO2 at 37 °C). After incubation, the cells were washed with PBS. To each well, we then added 50 µL of assay medium plus 50 µL of CellTiter-Glo® reagent. The samples were then shaken for 2 min at 100 rpm at 25 °C, followed by a further 10 min at 25 °C to stabilize the luminescence signal. Luminescence was measured using a VarioSkan LUX multimode microplate reader (Thermo Fisher Scientific, Vantaa, Finland).
(In general: Cellular ATP, detected with luciferase, serves as a proxy for viable cell number.)

Experiment in data set [7]: as above
It counts as cell-based, human. The settings on record: human; A-375 cells, 48 h, ATP luminescence; read-out: Cytotoxicity IC50 A-375. How it is done:
as §1

Where [8] appears, read: ITC, 25 °C, reverse titration, MSPa.
The mark [9] stands for this setting: 25 °C, reverse titration, ICLPa.

Usually Kd stands for the constant that tells how readily two partners part at equilibrium. As usually defined, the MIC is the lowest concentration found to suppress growth. The term IC50 denotes the midpoint of a concentration-inhibition curve.

SMILES strings stand for the structures. “And” between values parts separate entries of the source, which are not always exact repeats. Equal values may be shown once. Read-outs that look alike come from different tables or passages of the source.

MSPa, sequence (Q9I636 whole entry): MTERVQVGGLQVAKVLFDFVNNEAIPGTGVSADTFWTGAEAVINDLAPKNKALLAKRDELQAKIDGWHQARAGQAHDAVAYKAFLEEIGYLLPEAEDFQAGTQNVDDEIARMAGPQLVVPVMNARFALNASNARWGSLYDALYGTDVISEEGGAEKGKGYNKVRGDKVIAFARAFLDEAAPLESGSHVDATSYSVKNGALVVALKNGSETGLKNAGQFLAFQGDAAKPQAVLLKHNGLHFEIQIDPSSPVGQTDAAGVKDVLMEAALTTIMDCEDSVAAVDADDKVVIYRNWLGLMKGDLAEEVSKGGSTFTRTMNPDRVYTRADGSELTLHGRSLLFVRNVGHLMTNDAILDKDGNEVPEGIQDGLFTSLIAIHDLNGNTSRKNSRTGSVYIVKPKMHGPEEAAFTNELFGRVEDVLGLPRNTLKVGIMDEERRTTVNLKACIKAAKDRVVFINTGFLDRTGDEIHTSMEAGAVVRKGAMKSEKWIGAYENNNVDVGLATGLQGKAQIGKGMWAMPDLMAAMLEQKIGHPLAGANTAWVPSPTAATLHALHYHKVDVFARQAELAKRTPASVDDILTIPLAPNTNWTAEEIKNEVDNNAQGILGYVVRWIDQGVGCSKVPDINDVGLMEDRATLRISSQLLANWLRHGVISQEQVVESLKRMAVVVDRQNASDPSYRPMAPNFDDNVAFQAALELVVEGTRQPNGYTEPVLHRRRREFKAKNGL

Take `CC(C)(C)OC(=O)/N=C(\NC(=O)OC(C)(C)C)Nc1cc(Cl)ccn1` [SB002]: the Kd in data set [1] was determined as 28.6 ± 1.6 nM. Also, in data set [1] (setting [8]), the Ka amounted to 3.56e+07 ± 1.86e+06 M, the ΔG is −10.31 ± 1.79×10^−3 kcal/mol, the ΔH was −0.47 ± 1.79×10^−3 kcal/mol and the “−TΔS” value is -9.84 kcal/mol. For the same compound, the “n (binding sites)” value in data set [1] (ITC, per monomeric unit of MSPa) was 0.35 and 0.35 ± 8.41 × 10^−4. The MIC in data set [2] (conversion of 8 μg/mL) is listed as 21.6 µM. Besides, the MIC in data set [2] was 8 µg/mL. For the same compound, the “Therapeutic index U937” value in data set [3] was 17 and 17.31. For the same compound, in data set [4] (setting [9]), the Ka is 718000 ± 149000 M, binding was characterised by a dissociation constant (Kd) of 1430 nM, the ΔG was −7.98 ± 3.44×10^−1 kcal/mol and the ΔH is reported as −4.22 ± 3.44×10^−1 kcal/mol. Moreover, in data set [4] (setting [9]), the “−TΔS” value is -3.76 kcal/mol. Also, the “n (binding sites)” value in data set [4] (per monomeric unit of ICLPa) was 0.53 and 0.53 ± 3.25 × 10^−2. The “Ki’ (inhibition constant for binding to the enzyme-substrate complex), ICLPa” value in data set [5] stood at 21300 nM.
For the compound `CC(C)(C)OC(=O)/N=C(\NC(=O)OC(C)(C)C)Nc1cc(C#N)ccn1` [SB023], the “Therapeutic index A-375” value in data set [6] worked out at 11.95. The IC50 at 48 h in data set [7] is 106000 nM. Moreover, the “Therapeutic index U937” value in data set [3] is 364 and 364.37.

The record behind these values is publication PMC7177833, “2-Aminopyridine Analogs Inhibit Both Enzymes of the Glyoxylate Shunt in Pseudomonas aeruginosa” (International Journal of Molecular Sciences, 2020).
